# Results: patent US20260285853A1, “COMPOUNDS AND METHODS FOR MODULATING SPLICING” (REMIX THERAPEUTICS INC., priority 2023, published 2026)
# Read-outs that look alike come from different tables or passages of the source.
# Key:
# Type in all cases: cell-based
# HTT mRNA [1] = test: Splicing RT-qPCR assay (THP), Table 2A
# MYB mRNA [2] = test: Splicing RT-qPCR assay (THP), Table 2A
# HTT mRNA [3] = test: Gene panel canonical junction qPCR assay, decrease in CJ mRNA, Table 3
# Method in brief: (§1)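 A673 cells were plated, left to adhere for 24 h, then dosed; K562 cells were plated in 96- or 384-well format and dosed directly. Both were incubated 24 h at 37 °C with an 11-point 3-fold series (top 10 uM final). Canonical junction mRNA was then read by cDNA synthesis and qPCR.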
# MYB mRNA [4] = test: as above
# Method in brief: as §1
# [5] = test system: SH-SY5Y (human neuroblastoma) cells; test: Cell viability, Cell Titer Glo 2.0 assay; settings: read-out: Viability SHSY5Y.3 GI50
# Method in brief: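 SH-SY5Y neuroblastoma cells are exposed to test compounds for 72 hours at 37 °C and 5% CO2, with final DMSO held at 0.1%. Cell viability is then measured with the CellTiter-Glo 2.0 assay.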
# [6] = Table 2A (THP), AJ mRNA increase, read-out: HTT AJ (increase in alternative junction mRNA, AC50)
# [7] = Table 2A (THP), CJ mRNA decrease, read-out: HTT CJ (decrease in canonical junction mRNA, IC50)
# [8] = Table 2A (THP), AJ mRNA increase, read-out: MYB AJ (increase in alternative junction mRNA, AC50)
# [9] = Table 2A (THP), CJ mRNA decrease, read-out: MYB CJ (decrease in canonical junction mRNA, IC50)
# [10] = decrease in canonical junction (CJ) mRNA, gene panel qPCR, Table 3
# [11] = Table 2A, THP, HTT alternative junction (AJ) mRNA, read-out: HTT AJ (AC50, increase in alternative junction mRNA)
# [12] = Table 2A, THP, HTT canonical junction (CJ) mRNA, read-out: HTT CJ (IC50, decrease in canonical junction mRNA)
# [13] = Table 2A, THP, MYB alternative junction (AJ) mRNA, read-out: MYB AJ (AC50, increase in alternative junction mRNA)
# [14] = Table 2A, THP, MYB canonical junction (CJ) mRNA, read-out: MYB CJ (IC50, decrease in canonical junction mRNA)
# [15] = decrease in CJ mRNA levels, canonical junction qPCR, gene panel
IC50 (HTT mRNA [1]; [7]),IC50 (MYB mRNA [2]; [9]),IC50 (HTT mRNA [3]; [10]),IC50 (MYB mRNA [4]; [10]),GI50 [5],IC50 (HTT mRNA [1]; [12]),IC50 (MYB mRNA [2]; [14]),IC50 (HTT mRNA [3]; [15]),IC50 (MYB mRNA [4]; [15]),SMILES,AC50 (HTT mRNA [1]; [6]),AC50 (MYB mRNA [2]; [8]),AC50 (HTT mRNA [1]; [11]),AC50 (MYB mRNA [2]; [13])
> 10000 nM,1000 to 10000 nM,> 10000 nM,1000 to 10000 nM,1000 to 10000 nM,,,,,"CCNC1CCN(c2ccc(C(=O)Nc3cc(Oc4ccccc4C)c4nc(C)cn4c3)c3nn(C)cc23)CC1 [Compound 316, 4-[4-(ethylamino)-1-piperidyl]-2-methyl-N-[2-methyl-8-(2-methylphenoxy)imidazo[1,2-a]pyridin-6-yl]indazole-7-carboxamide]",> 10000 nM,> 10000 nM,,
,,,,1000 to 10000 nM,1000 to 10000 nM,100 to 1000 nM,1000 to 10000 nM,100 to 1000 nM,Cc1cn2c(N3CCC(NC4CC4)CC3)ccc(C(=O)Nc3cc(CO)c4nn(C)cc4c3)c2n1 [Compound 859],,,1000 to 10000 nM,100 to 1000 nM
,,,,1000 to 10000 nM,1000 to 10000 nM,1000 to 10000 nM,1000 to 10000 nM,1000 to 10000 nM,CCNC1CCN(c2ccc(C(=O)Nc3cc(CCC(=O)NC)c4nn(C)cc4c3)c3nn(C)cc23)CC1 [Compound 876],,,1000 to 10000 nM,1000 to 10000 nM
> 10000 nM,> 10000 nM,> 10000 nM,> 10000 nM,1000 to 10000 nM,,,,,COc1cc2nn(C)cc2cc1NC(=O)c1ccc(N2CC3(CNCCO3)C2)c2cn(C)nc12 [Compound 508],> 10000 nM,1000 to 10000 nM,,
> 10000 nM,1000 to 10000 nM,> 10000 nM,1000 to 10000 nM,100 to 1000 nM,,,,,"Cc1cc2cc(NC(=O)c3ccc(N4CCC(NC5CC5)CC4)c4cn(C)nc34)oc2c(C)n1 [Compound 451, 4-(4-(cyclopropylamino)piperidin-1-yl)-N-(5,7-dimethyl-furo-[2,3-c]pyridin-2-yl)-2-methyl-2H-indazole-7-carboxamide 2,2,2-trifluoroacetate]",> 10000 nM,1000 to 10000 nM,,
> 10000 nM,1000 to 10000 nM,> 10000 nM,1000 to 10000 nM,> 10000 nM,,,,,"CCNC1CCN(c2ccc(C(=O)Nc3cn4cc(CO)nc(C)c4n3)c3nn(C)cc23)CC1 [Compound 337, 4-(4-(ethylamino)piperidin-1-yl)-N-(6-(hydroxymethyl)-8-methylimidazo[1,2-a]pyrazin-2-yl)-2-methyl-2H-indazole-7-carboxamide 2,2,2-trifluoroacetate]",> 10000 nM,1000 to 10000 nM,,
,,,,100 to 1000 nM,1000 to 10000 nM,100 to 1000 nM,1000 to 10000 nM,100 to 1000 nM,"COc1nc2c(C(=O)Nc3cc4cn(C)nc4cc3OC)ccc(N3CCC(NC4CC4)CC3)c2s1 [Compound 668, 7-(4-(cyclopropylamino)-piperidin-1-yl)-2-methoxy-N-(6-methoxy-2-methyl-2H-indazol-5-yl)benzo[d]-thiazole-4-carboxamide 2,2,2-trifluoroacetate]",,,1000 to 10000 nM,100 to 1000 nM
1000 to 10000 nM,100 to 1000 nM,1000 to 10000 nM,100 to 1000 nM,1000 to 10000 nM,,,,,"CCNC1CCN(c2ccc(C(=O)Nc3cc(Oc4cccc(C#N)c4)c4nc(C)cn4c3)c3nn(C)cc23)CC1 [Compound 326, N-[8-(3-cyano-phenoxy)-2-methylimidazo[1,2-a]pyridin-6-yl]-4-[4-(ethylamino)-1-piperidyl]-2-methyl-indazole-7-carboxamide]",1000 to 10000 nM,100 to 1000 nM,,

# Continued, compound first:
SMILES,IC50 (HTT mRNA [1]; [7]),IC50 (MYB mRNA [2]; [9]),IC50 (HTT mRNA [3]; [10]),IC50 (MYB mRNA [4]; [10]),GI50 [5],IC50 (HTT mRNA [1]; [12]),IC50 (MYB mRNA [2]; [14]),IC50 (HTT mRNA [3]; [15]),IC50 (MYB mRNA [4]; [15]),AC50 (HTT mRNA [1]; [6]),AC50 (MYB mRNA [2]; [8]),AC50 (HTT mRNA [1]; [11]),AC50 (MYB mRNA [2]; [13])
"CCNC1CCN(c2ncc(C(=O)Nc3cn4cc(C)nc(C)c4n3)c3nn(C)cc23)CC1 [Compound 394, N-(6,8-dimethylimidazo[1,2-a]pyrazin-2-yl)-4-[4-(ethylamino)-1-piperidyl]-2-methyl-pyrazolo-[4,3-c]-pyridine-7-carboxamide]",1000 to 10000 nM,100 to 1000 nM,1000 to 10000 nM,100 to 1000 nM,> 10000 nM,,,,,1000 to 10000 nM,< 100 nM,,
"Cc1cn2cc(NC(=O)c3c(C)cc(N4CCC(NC5CC5)CC4)c4cn(C)nc34)nc2c(C)n1 [Compound 473, 4-[4-(cyclopropylamino)-1-piperidyl]-N-(6,8-dimethylimidazo[1,2-a]pyrazin-2-yl)-2,6-dimethyl-indazole-7-carboxamide]",> 10000 nM,> 10000 nM,> 10000 nM,> 10000 nM,> 10000 nM,,,,,> 10000 nM,> 10000 nM,,
"Cc1cn2cc(NC(=O)c3ncc(N4CCC(NC5CC5)CC4)c4cn(C)nc34)cc(F)c2n1 [Compound 361, 4-[4-(cyclopropylamino)-1-piperidyl]-N-(8-fluoro-2-methyl-imidazo[1,2-a]pyridin-6-yl)-2-methyl-pyrazolo[3,4-c]pyridine-7-carboxamide]",> 10000 nM,100 to 1000 nM,> 10000 nM,100 to 1000 nM,1000 to 10000 nM,,,,,1000 to 10000 nM,100 to 1000 nM,,
"CCNCC1CCN(c2cc(F)c(C(=O)Nc3cn4cc(C)nc(C)c4n3)c3nn(C)cc23)C1 (stereo not shown) [Compound 471, N-(6,8-dimethylimidazo-[1,2-a]-pyrazin-2-yl)-4-(3-[(ethylamino)methyl]-pyrrolidin-1-yl)-6-fluoro-2-methyl-indazole-7-carboxamide]",> 10000 nM,100 to 1000 nM,> 10000 nM,100 to 1000 nM,1000 to 10000 nM,,,,,> 10000 nM,100 to 1000 nM,,
"COc1cc2nn(C)cc2cc1NC(=O)c1ccc(N2CCC(NC3CC3)CC2)c2c(CO)n(C)nc12 [Compound 522, 4-[4-(cyclopropylamino)-1-piperidyl]-3-(hydroxymethyl)-N-(6-methoxy-2-methyl-indazol-5-yl)-2-methyl-indazole-7-carboxamide]",1000 to 10000 nM,1000 to 10000 nM,1000 to 10000 nM,1000 to 10000 nM,1000 to 10000 nM,,,,,1000 to 10000 nM,1000 to 10000 nM,,
"CNC1CCN(c2ccc(C(=O)Nc3cn4cc(C)nc(CNS(C)(=O)=O)c4n3)c3nn(C)cc23)C1 (stereo not shown) [Compound 848, N-[8-(methanesulfonamidomethyl)-6-methyl-imidazo[1,2-a]pyrazin-2-yl]-2-methyl-4-[3-(methylamino)pyrrolidin-1-yl]indazole-7-carboxamide]",,,,,100 to 1000 nM,100 to 1000 nM,100 to 1000 nM,100 to 1000 nM,100 to 1000 nM,,,100 to 1000 nM,100 to 1000 nM
"Cc1cn2cc(NC(=O)c3ccc(N4CCC(NC5CC5)CC4)c4cn(C)nc34)nc2c(Cn2cnc(C(N)=O)c2)n1 [Compound 775, N-(8-((4-carbamoyl-1H-imidazol-1-yl)methyl)-6-methylimidazo[1,2-a]pyrazin-2-yl)-4-(4-(cyclopropylamino)piperidin-1-yl)-2-methyl-2H-indazole-7-carboxamide 2,2,2-trifluoroacetate]",,,,,> 10000 nM,> 10000 nM,> 10000 nM,> 10000 nM,> 10000 nM,,,> 10000 nM,> 10000 nM
"COc1nc2c(C(=O)Nc3cn4cc(C)nc(C)c4n3)ccc(N3CCC(NC4CC4)CC3)c2s1 [Compound 667, 7-(4-(cyclopropylamino)-piperidin-1-yl)-N-(6,8-dimethylimidazo[1,2-a]pyrazin-2-yl)-2-methoxy-benzo[d]thiazole-4-carboxamide 2,2,2-trifluoroacetate]",,,,,1000 to 10000 nM,> 10000 nM,> 10000 nM,> 10000 nM,> 10000 nM,,,> 10000 nM,1000 to 10000 nM
